Assay results taken from patent US20250122174A1 (Shenzhen Yuanli Shenwan Innovative Medicine Co., Ltd., priority 2022, published 2025).

Molecular target: HPK1 (Homo sapiens (Human), UniProt Q92918)
Assay: HPK1 Inhibition Assay (ADP-Glo kinase assay)
Assay type: biochemical
Details: ATP 10 μM
How it was run: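 ADP-Glo luminescence read-out after 1 h room-temperature kinase reaction with 10 μM ATP and 0.1 μg/ml MBP. Recombinant human HPK1 at 7.5 ng/μl; buffer 40 mM Tris pH 7.5, 20 mM MgCl2. Compounds serially diluted 5-fold over 10 points from 10 mM DMSO stock.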

HPK1, sequence (Q92918 1-346 limits assumed): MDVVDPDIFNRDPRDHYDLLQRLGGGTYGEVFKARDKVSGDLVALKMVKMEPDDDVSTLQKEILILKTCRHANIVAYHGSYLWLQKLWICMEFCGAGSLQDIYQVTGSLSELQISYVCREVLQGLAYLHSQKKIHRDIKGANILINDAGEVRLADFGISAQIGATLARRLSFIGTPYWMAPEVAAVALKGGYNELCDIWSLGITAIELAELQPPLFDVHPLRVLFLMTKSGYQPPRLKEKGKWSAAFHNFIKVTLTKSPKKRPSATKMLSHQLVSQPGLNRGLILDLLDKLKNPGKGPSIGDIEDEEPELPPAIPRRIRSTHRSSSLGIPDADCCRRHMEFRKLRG

Row | Structure (SMILES) | IC50 [nM]
1 | Cn1c(C(C)(C)F)nc2c(N3CC[C@@H](N)C3)c(NC(=O)c3ccc(=O)n(-c4c(F)cccc4F)n3)cc(F)c21 [Example 157, (R)-N-(4-(3-aminopyrrolidin-1-yl)-7-fluoro-2-(2-fluoropropan-2-yl)-1-methyl-1H-benzo[d]imidazol-5-yl)-1-(2,6-difluorophenyl)-6-oxo-1,6-dihydropyridazine-3-carboxamide] | < 100
2 | Cn1c(C(C)(C)C(F)(F)F)nc2c(N3CC[C@@H](N)C3)c(NC(=O)c3ccc(=O)n(-c4c(F)cccc4F)n3)ccc21 [Example 158, (R)-N-(4-(3-aminopyrrolidin-1-yl)-1-methyl-2-(1,1,1-trifluoro-2-methylpropan-2-yl)-1H-benzo[d]imidazol-5-yl)-1-(2,6-difluorophenyl)-6-oxo-1,6-dihydropyridazine-3-carboxamide] | < 100
3 | Cn1c(C(F)F)nc2c(N3CC[C@@H](N)C3)c(NC(=O)c3ccc(=O)n(-c4c(F)cccc4F)n3)ccc21 [Example 159, (R)-N-(4-(3-aminopyrrolidin-1-yl)-2-(difluoromethyl)-1-methyl-1H-benzo[d]imidazol-5-yl)-1-(2,6-difluorophenyl)-6-oxo-1,6-dihydropyridazine-3-carboxamide] | < 100
4 | Cn1c(C2CC2)nc2c(N3CC[C@@H](N)C3)c(NC(=O)c3ccc(=O)n(-c4c(F)cccc4F)n3)ccc21 [Example 160, (R)-N-(4-(3-aminopyrrolidin-1-yl)-2-cyclopropyl-1-methyl-1H-benzo[d]imidazol-5-yl)-1-(2,6-difluorophenyl)-6-oxo-1,6-dihydropyridazine-3-carboxamide] | < 100
5 | Cn1c(C(F)F)nc2c(N3CC[C@H](N)C3)c(NC(=O)c3ccc(=O)n(-c4c(F)cccc4F)n3)ccc21 [Example 161, (S)-N-(4-(3-aminopyrrolidin-1-yl)-2-(difluoromethyl)-1-methyl-1H-benzo[d]imidazol-5-yl)-1-(2,6-difluorophenyl)-6-oxo-1,6-dihydropyridazine-3-carboxamide] | < 100
6 | CSCc1nc2c(N3CC[C@@H](N)C3)c(NC(=O)c3ccc(=O)n(-c4c(F)cccc4F)n3)ccc2n1C [Example 162, (R)-N-(4-(3-aminopyrrolidin-1-yl)-1-methyl-2-((methylthio)methyl)-1H-benzo[d]imidazol-5-yl)-1-(2,6-difluorophenyl)-6-oxo-1,6-dihydropyridazine-3-carboxamide] | < 100
7 | CC(C)c1nc2c(N3CC[C@@H](N)C3)c(NC(=O)c3ccnn(-c4c(F)cccc4F)c3=O)ccc2n1C [Example 163, (R)-N-(4-(3-aminopyrrolidin-1-yl)-2-isopropyl-1-methyl-1H-benzo[d]imidazol-5-yl)-2-(2,6-difluorophenyl)-3-oxo-2,3-dihydropyridazine-4-carboxamide] | < 100
8 | COc1cccc(F)c1-c1nccc(C(=O)Nc2ccc3c(nc(CS(C)(=O)=O)n3C)c2N2CC[C@@H](N)C2)c1F [Example 165, N-(4-((R)-3-aminopyrrolidin-1-yl)-1-methyl-2-((methylsulfonyl)methyl)-1H-benzo[d]imidazol-5-yl)-3-fluoro-2-(2-fluoro-6-methoxyphenyl)isonicotinamide] | < 100
9 | C[C@@H]1CN(c2c(NC(=O)c3ccc(=O)n(-c4c(F)cccc4F)n3)ccc3c2cnn3C)C[C@@H]1N [Example 166, N-[4-[(3R,4R)-3-amino-4-methyl-pyrrolidin-1-yl]-1-methyl-indazol-5-yl]-1-(2,6-difluorophenyl)-6-oxo-pyridazine-3-carboxamide] | < 100
10 | Cn1ncc2c(N3CC[C@@H](N)C3)c(NC(=O)c3ccc(=O)n(-c4c(F)cccc4F)n3)ccc21 [Example 167, (R)-N-(4-(3-aminopyrrolidin-1-yl)-1-methyl-1H-indazol-5-yl)-1-(2,6-difluorophenyl)-6-oxo-1,6-dihydropyridazine-3-carboxamide] | < 100
11 | Cn1ncc2c(N3CCC(N)CC3)c(NC(=O)c3ccc(=O)n(-c4c(F)cccc4F)n3)cc(F)c21 [Example 168, N-(4-(4-aminopiperidin-1-yl)-7-fluoro-1-methyl-1H-indazol-5-yl)-1-(2,6-difluorophenyl)-6-oxo-1,6-dihydropyridazine-3-carboxamide] | < 100
12 | Cn1ncc2c(N3CCC[C@@H](N)C3)c(NC(=O)c3ccc(=O)n(-c4c(F)cccc4F)n3)cc(F)c21 [Example 169, (R)-N-(4-(3-aminopiperidin-1-yl)-7-fluoro-1-methyl-1H-indazol-5-yl)-1-(2,6-difluorophenyl)-6-oxo-1,6-dihydropyridazine-3-carboxamide] | < 100
13 | C[C@@H]1CN(c2c(NC(=O)c3ccc(=O)n(-c4c(F)cccc4F)n3)cc(F)c3c2cnn3C)C[C@@H]1N [Example 170, N-(4-((3R,4R)-3-amino-4-methylpyrrolidin-1-yl)-7-fluoro-1-methyl-1H-indazol-5-yl)-1-(2,6-difluorophenyl)-6-oxo-1,6-dihydropyridazine-3-carboxamide] | < 100
14 | [2H]C([2H])([2H])n1ncc2c(N3C[C@@H](C)[C@@H](N)C3)c(NC(=O)c3ccc(=O)n(-c4c(F)cccc4F)n3)ccc21 [Example 171, N-(4-((3R,4R)-3-amino-4-methylpyrrolidin-1-yl)-1-(methyl-d3)-1H-indazol-5-yl)-1-(2,6-difluorophenyl)-6-oxo-1,6-dihydropyridazine-3-carboxamide] | < 100
15 | [2H]C([2H])([2H])n1ncc2c(N3C[C@H](N)C4(CC4)C3)c(NC(=O)c3ccc(=O)n(-c4c(F)cccc4F)n3)ccc21 [Example 172, (R)-N-(4-(7-amino-5-azaspiro[2.4]heptan-5-yl)-1-(methyl-d3)-1H-indazol-5-yl)-1-(2,6-difluorophenyl)-6-oxo-1,6-dihydropyridazine-3-carboxamide] | < 100
16 | C[C@H]1CN(c2c(NC(=O)c3ccc(=O)n(-c4c(F)cccc4F)n3)ccc3c2cnn3C)C[C@@H]1N [Example 173, N-(4-((3R,4S)-3-amino-4-methylpyrrolidin-1-yl)-1-methyl-1H-indazol-5-yl)-1-(2,6-difluorophenyl)-6-oxo-1,6-dihydropyridazine-3-carboxamide] | < 100
17 | Cn1ncc2c(N3C[C@H](N)C4(CC4)C3)c(NC(=O)c3ccc(=O)n(-c4c(F)cccc4F)n3)ccc21 [Example 174, (R)-N-(4-(7-amino-5-azaspiro[2.4]heptan-5-yl)-1-methyl-1H-indazol-5-yl)-1-(2,6-difluorophenyl)-6-oxo-1,6-dihydropyridazine-3-carboxamide] | < 100
18 | Cn1cc2c(N3CC[C@@H](N)C3)c(NC(=O)c3ccc(=O)n(-c4c(F)cccc4F)n3)ccc2n1 [Example 175, (R)—N-(4-(3-aminopyrrolidin-1-yl)-2-methyl-2H-indazol-5-yl)-1-(2,6-difluorophenyl)-6-oxo-1,6-dihydropyridazine-3-carboxamide] | < 100
19 | Cn1cc2c(N3CCC[C@@H](N)C3)c(NC(=O)c3ccc(=O)n(-c4c(F)cccc4F)n3)ccc2n1 [Example 176, (R)-N-(4-(3-aminopiperidin-1-yl)-2-methyl-2H-indazol-5-yl)-1-(2,6-difluorophenyl)-6-oxo-1,6-dihydropyridazine-3-carboxamide] | < 100
20 | Cn1cc2c(N3CCC(N)CC3)c(NC(=O)c3ccc(=O)n(-c4c(F)cccc4F)n3)ccc2n1 [Example 177, N-(4-(4-aminopiperidin-1-yl)-2-methyl-2H-indazol-5-yl)-1-(2,6-difluorophenyl)-6-oxo-1,6-dihydropyridazine-3-carboxamide] | < 100
21 | [2H]C([2H])([2H])n1cc2c(N3C[C@@H](C)[C@@H](N)C3)c(NC(=O)c3ccc(=O)n(-c4c(F)cccc4F)n3)ccc2n1 [Example 178, N-(4-((3R,4R)-3-amino-4-methylpyrrolidin-1-yl)-2-(methyl-d3)-2H-indazol-5-yl)-1-(2,6-difluorophenyl)-6-oxo-1,6-dihydropyridazine-3-carboxamide] | < 100
22 | CC(C)n1ncc2c(N3CC[C@@H](N)C3)c(NC(=O)c3ccc(=O)n(-c4c(F)cccc4F)n3)ccc21 [Example 179, N-[4-[(3R)-3-aminopyrrolidin-1-yl]-1-isopropyl-indazol-5-yl]-1-(2,6-difluorophenyl)-6-oxo-pyridazine-3-carboxamide] | < 100
23 | CC(C)n1ncc2c(N3C[C@@H](C)[C@@H](N)C3)c(NC(=O)c3ccc(=O)n(-c4c(F)cccc4F)n3)ccc21 [Example 180, N-(4-((3R,4R)-3-amino-4-methylpyrrolidin-1-yl)-1-isopropyl-1H-indazol-5-yl)-1-(2,6-difluorophenyl)-6-oxo-1,6-dihydropyridazine-3-carboxamide] | < 100
24 | CC(C)n1ncc2c(N3CCC[C@@H]3CN)c(NC(=O)c3ccc(=O)n(-c4c(F)cccc4F)n3)ccc21 [Example 181, (R)-N-(4-(2-(aminomethyl)pyrrolidin-1-yl)-1-isopropyl-1H-indazol-5-yl)-1-(2,6-difluorophenyl)-6-oxo-1,6-dihydropyridazine-3-carboxamide] | < 100
25 | CC(C)n1ncc2c(N3C[C@H](N)C4(CC4)C3)c(NC(=O)c3ccc(=O)n(-c4c(F)cccc4F)n3)ccc21 [Example 182, (R)-N-(4-(7-amino-5-azaspiro[2.4]heptan-5-yl)-1-isopropyl-1H-indazol-5-yl)-1-(2,6-difluorophenyl)-6-oxo-1,6-dihydropyridazine-3-carboxamide] | < 100
26 | CC(C)n1ncc2c(N3CCC[C@@H](N)C3)c(NC(=O)c3ccc(=O)n(-c4c(F)cccc4F)n3)ccc21 [Example 183, (R)-N-(4-(3-aminopiperidin-1-yl)-1-isopropyl-1H-indazol-5-yl)-1-(2,6-difluorophenyl)-6-oxo-1,6-dihydropyridazine-3-carboxamide] | < 100
27 | Cc1cc(NC(=O)c2ccc(=O)n(-c3c(F)cccc3F)n2)c(N2CC[C@@H](N)C2)c2cnn(C(C)C)c12 [Example 185, (R)-N-(4-(3-aminopyrrolidin-1-yl)-1-isopropyl-7-methyl-1H-indazol-5-yl)-1-(2,6-difluorophenyl)-6-oxo-1,6-dihydropyridazine-3-carboxamide] | < 100
